The text below walks through data of PMC10888688 (International Journal of Molecular Sciences, 2024).

Series [1] has as its system Escherichia coli ATCC 25922. The experiment in a line: MIC, broth dilution, E. coli. It counts as cell-based. The conditions noted are these: MH broth, overnight at 37 °C, peptide 0 to 16 μM, OD600, E. coli ATCC 25922. The method, then:
(§1) Typically, an overnight bacterial culture was grown to the mid-log phase on a shaker at 183 rpm, at 37 °C, and then diluted in 2X Mueller Hinton (MH) broth (Millipore-Sigma^TM, Saint Louis, MO, USA) to achieve a final OD of 0.002. In a 96-well plate, 100 μL of the diluted bacterial culture along with 100 μL of peptide, concentrations ranging from 0 μM to 16 μM, was added and incubated overnight at 37 °C. Peptide concentrations were estimated by UV absorbance at a wavelength of 274 nm using a molar extinction coefficient (ε) of 1420 M^−1 cm^−1. Bacterial growth inhibition was determined by absorbance of 96 well plates at OD600 nm using a Cytation spectrophotometer (Agilent, Santa Clara, CA, USA).
Background: In broth dilution the organism is exposed to a series of concentrations in liquid medium.

The test system of series [2] is Acinetobacter baumannii ATCC BAA-1798. The experiment in a line: MIC, A. baumannii. The series is classed as cell-based. The conditions noted are these: A. baumannii ATCC BAA-1798; broth dilution, overnight at 37 °C, peptide 0 to 16 μM. The method, then: as §1
Series [3] concerns Streptococcus pyogen ATCC 19615. The experiment in a line: MIC, broth dilution, S. pyogenes. The series is classed as cell-based, Streptococcus pyogenes. Particulars: MH broth, overnight at 37 °C, peptide 0 to 16 μM, OD600, S. pyogenes ATCC 19615. As for the experimental part:
as §1

The test system of series [4] is Enterococcus faecalis ATCC 29212. The experiment in a line: MIC, broth dilution, E. faecalis. It counts as cell-based. The conditions noted are these: MH broth, overnight at 37 °C, peptide 0 to 16 μM, OD600, E. faecalis ATCC 29212. As for the experimental part:
as §1

The test system of series [5] is human kidney cell line HEK 293T. The experiment in a line: MTS cell survival assay, HEK 293T. It counts as cell-based. The conditions noted are these: OD490, overnight at 37 °C/5% CO2, Figure 1. As for the experimental part:
(§2) Assays were conducted in complete media for cells Dulbecco’s Modified Eagle Medium (DMEM; Gibco; Waltham, MA USA, catalog number: 11995065) supplemented with 10% fetal bovine serum (FBS; Hyclone; Logan, UT, USA, catalog number: SV30160.03HI-1). […] All dose-response peptide dilutions were prepared in a U-bottom 96-well plate. 0.02 × 10^6 cells/50 µL of complete media were seeded overnight per well in a 96-well plate, and 105 µL of serum-free (sf) DMEM were added. Cells and peptides were incubated at 37 °C/5% CO2 overnight. Cell viability was checked using MTS assay and read after 30–45 min, and absorbance at OD490 was read using Tecan Infinite 200 Pro plate reader (Tecan, Mannedrof, Switzerland, CellTiter96®AQueous One Solution Cell Proliferation Assay (MTS); catalog number: G3580).
For orientation: Formazan colour is commonly taken as a measure of viable cells.

The subject of series [6] is liver cell line Hep G2. Briefly: MTS cell survival assay, Hep G2. The series is classed as cell-based, human. Particulars: OD490, overnight at 37 °C/5% CO2, Figure 1. As for the experimental part: as §2
For series [7], the target named is T1, LptAm of E. coli (Escherichia coli, UniProt P0ADV1).
T1 construct: Recombinant LptAm (residues 28–159) of E. coli; His-tag; made in house; host or cells: E. coli BL21
The experiment in a line: LptAm binding by ITC. In general terms: Isothermal titration calorimetry measures the heat released or taken up as one component is titrated into another.

In series [8] the test system is Gram-negative bacteria. Particulars: cited from earlier work. From the text: Currently, viable antibiotics available to mitigate infections caused by drug-resistant Gram-negative bacteria are highly limited. Thanatin, a 21-residue-long insect-derived antimicrobial peptide (AMP), is a promising lead molecule for the potential development of novel antibiotics. […] As a mode of action, cationic thanatin efficiently permeabilizes the LPS-outer membrane and binds to the periplasmic protein LptAm to inhibit outer membrane biogenesis. […] In this work, we have investigated shorter variants of thanatin in terms of their antibacterial activity, atomic resol ... || Previous studies have shown that residues at the N-terminus of thanatin ([…]) can be dispensable for antimicrobial activity. By contrast, deletion of residues at the C-terminus of thanatin drastically reduces activity against Gram-negative bacteria. […] However, antibacterial activity was ...

The subject of series [9] is Gram-negative bacteria. The conditions noted are these: cited from earlier work. From the text: (§3) Cationic AMPs are known ...
The source holds these as a separate data set.

Series [10] has as its system outer membrane of Gram-negative bacteria. The conditions noted are these: binding with negatively charged LPS; cited from earlier work.
Source text: as §3

The test system of series [11] is LptAm. The conditions noted are these: truncated functional variant of LptA; cited from earlier work. From the text:
The 21-residue-long thanatin was isolated from the hemolymph of the bacteria-treated insect Podisus maculiventris. A single disulfide bond between residues Cys11 and […] stabilizes the β-hairpin structure of thanatin with a flexible N-terminus region. […] Cationic AMPs are known ...

The subject of series [12] is LptA and LptC complex. Particulars: binding of LptA; cited from earlier work. The source says:
(§4) In this work, we have investigated shorter variants of thanatin in terms of their antibacterial activity, atomic resol ...

Series [13] concerns periplasmic part of the β-taco domain of LptD. Particulars: cited from earlier work.
Source text: as §4

For series [14] the following is noted: cited from earlier work. The source says: Host defense AMPs contain a high potential to combat drug or multidrug-resistant bacterial pathogens. AMPs are evolutionary conserved molecules found in all kingdoms of life that are effective in fending off infections as a part of innate immunity. The broad-spectrum activity of AMPs provides vital lead molecules for the next generation of antibiotics. In particular, the ability of AMPs to kill Gram-negative bacteria can be exploited for the designing of new antibiotics against drug-resistant strains.

What is called Kd is the free concentration of one partner at which half of the binding sites on the other are occupied at equilibrium, for simple one-to-one binding.

≈ marks a conversion by molar mass, not a printed value. Entries after “also recorded” stand apart in the source; their conditions may differ. Ends that are not written are not given here. Some results are limits rather than exact numbers.

Turning to `CC[C@H](C)[C@H](NC(=O)[C@@H](NC(=O)[C@@H]1CCCN1C(=O)[C@@H](N)C(C)C)[C@@H](C)CC)C(=O)N[C@@H](Cc1ccc(O)cc1)C(=O)N[C@H]1CSSC[C@@H](C(=O)N[C@@H](CCC(N)=O)C(=O)N[C@@H](CCCNC(=N)N)C(=O)N[C@@H](Cc2ccccc2)C(N)=O)NC(=O)[C@H](CCCCN)NC(=O)[C@@H](CCCCN)NC(=O)[C@H]([C@@H](C)O)NC(=O)[C@H](CCCNC(=N)N)NC(=O)[C@H](CCCNC(=N)N)NC(=O)[C@H](CC(N)=O)NC1=O` [VF16], the “MIC (EC)” value in series [1] came out at 0.5 µM (≈ 1.01 µg/mL). The “MIC (AB)” value in [2] is more than 16 µM. For the same compound, the “MIC (SP)” value in [3] was 1 µM (≈ 2.02 µg/mL). Besides, in [4], the “MIC (EF)” value is listed as more than 16 µM. The “toxicity / cell survival, HEK 293T, in words” value in series [5] was “did not show any detectable toxicity; also recorded: essentially non-toxic as both the cell lines demonstrate a high percentage of survival”. In series [6], the “toxicity / cell survival, Hep G2, in words” value is “did not show any detectable toxicity; also recorded: essentially non-toxic as both the cell lines demonstrate a high percentage of survival”. This compound also had a Kd in series [7] of 0.25 µM.
Turning to “GSKKPVPIIYCNRRTGKCQRM (disulfide) [thanatin, 21-residue-long insect-derived antimicrobial peptide isolated from Podisus maculiventris, single disulfide bond Cys11-Cys16]”, in series [8] (Enterobacter group, e.g., E. coli and K. pneumoniae, background statement, no reference given), the “activity against Gram-negative pathogens, in words (abstract)” value is given as “extremely potent”. In addition, in [8] (including drug-resistant strains of E. coli and K. pneumoniae), the “activity against Gram-negative bacteria, in words” value is on record as “potent activity”. Besides, in [9], the “effect in animal models of sepsis and infections, in words” value was “lowering of Gram-negative bacterial loads and also neutralization of toxicity of LPS”. The “outer membrane permeabilization, in words” value in [10] is “efficient permeabilization of the outer membrane of Gram-negative bacteria”. For the same compound, the “LptAm binding, in words” value in series [11] was “high-affinity binding with LptAm”. The “inhibition of LPS transport, in words” value in series [12] is “disrupting LptA and LptC complex”. In addition, the “LptD binding, in words” value in [13] is listed as “binds to the periplasmic part of the β-taco domain of LptD”.
On to polymyxin B, for which the “nephrotoxicity, in words” value in series [14] is listed as “nephrotoxicity”.
Regarding “thanatin analog with M21F substitution: thanatin analog with M21F substitution (GSKKPVPIIYCNRRTGKCQRF; ends and bridges not checked; cysteine pairing not given here; UniProt P55788 1-21, looked up, variant M21F)”, the “antibacterial activity of M21F analog, in words” value in series [8] (compared with thanatin) was “better antibacterial activity”.
